From PubChem BioAssay (NCI)
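How tested: cells in 96-well plates exposed to compound for 48 hours at five concentrations. The concentration for 50% growth inhibition is given as GI50. TGI: total growth inhibition.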

How the values were obtained:
Test in all cases: growth of human tumour cells (NCI), 48 h
786-0 renal = test system: 786-0 renal
A549 NSCLC = test system: A549 NSCLC
ACHN renal = test system: ACHN renal
BT-549 breast = test system: BT-549 breast
CAKI-1 renal = test system: CAKI-1 renal
CCRF-CEM leukemia = test system: CCRF-CEM leukemia
COLO 205 colon = test system: COLO 205 colon
DU-145 prostate = test system: DU-145 prostate
EKVX NSCLC = test system: EKVX NSCLC
HCC-2998 colon = test system: HCC-2998 colon
HCT-116 colon = test system: HCT-116 colon
HCT-15 colon = test system: HCT-15 colon
HL-60(TB) leukemia = test system: HL-60(TB) leukemia
HOP-62 NSCLC = test system: HOP-62 NSCLC
HOP-92 NSCLC = test system: HOP-92 NSCLC
HT29 colon = test system: HT29 colon
K-562 leukemia = test system: K-562 leukemia
KM12 colon = test system: KM12 colon
LOX IMVI melanoma = test system: LOX IMVI melanoma
M14 melanoma = test system: M14 melanoma
MCF7 breast = test system: MCF7 breast
MDA-MB-231 breast = test system: MDA-MB-231 breast
MDA-MB-435 = test system: MDA-MB-435
MOLT-4 leukemia = test system: MOLT-4 leukemia
NCI-H226 lung = test system: NCI-H226 lung
NCI-H23 lung = test system: NCI-H23 lung
NCI-H460 lung = test system: NCI-H460 lung
NCI-H522 lung = test system: NCI-H522 lung
NCI/ADR-RES ovarian = test system: NCI/ADR-RES ovarian
OVCAR-3 ovarian = test system: OVCAR-3 ovarian
OVCAR-4 ovarian = test system: OVCAR-4 ovarian
OVCAR-5 ovarian = test system: OVCAR-5 ovarian
OVCAR-8 ovarian = test system: OVCAR-8 ovarian
PC-3 prostate = test system: PC-3 prostate
RPMI-8226 leukemia = test system: RPMI-8226 leukemia
RXF 393 renal = test system: RXF 393 renal
SF-268 CNS = test system: SF-268 CNS
SF-295 CNS = test system: SF-295 CNS
SF-539 CNS = test system: SF-539 CNS
SK-MEL-2 melanoma = test system: SK-MEL-2 melanoma
SK-MEL-28 melanoma = test system: SK-MEL-28 melanoma
SK-MEL-5 melanoma = test system: SK-MEL-5 melanoma
SK-OV-3 ovarian = test system: SK-OV-3 ovarian
SN12C renal = test system: SN12C renal
SNB-19 CNS = test system: SNB-19 CNS
SNB-75 CNS = test system: SNB-75 CNS
SR leukemia = test system: SR leukemia
SW-620 colon = test system: SW-620 colon
T-47D breast = test system: T-47D breast
TK-10 renal = test system: TK-10 renal
U251 CNS = test system: U251 CNS
UACC-257 melanoma = test system: UACC-257 melanoma
UACC-62 melanoma = test system: UACC-62 melanoma
UO-31 renal = test system: UO-31 renal
A498 renal = test system: A498 renal
HS 578T breast = test system: HS 578T breast
IGROV1 ovarian = test system: IGROV1 ovarian

For CCC(=O)c1c(C(F)(F)F)n([O-])c2ccc(C)cc2[n+]1=O, the GI50 (786-0 renal) was 22 µM, the TGI (786-0 renal) was over 50 µM and the GI50 (A549 NSCLC) was 11.3 µM. For the same molecule, the TGI (A549 NSCLC) was over 50 µM, the GI50 (ACHN renal) was 5.02 µM and the TGI (ACHN renal) was 14.2 µM. It also gave a GI50 (BT-549 breast) of 1.35 µM, a TGI (BT-549 breast) of 5.43 µM and a GI50 (CAKI-1 renal) of 5.78 µM. The TGI (CAKI-1 renal) was 16.2 µM, the GI50 (CCRF-CEM leukemia) was 18.2 µM and the TGI (CCRF-CEM leukemia) was over 50 µM. The GI50 (COLO 205 colon) was 5.24 µM, the TGI (COLO 205 colon) was 19.6 µM and the GI50 (DU-145 prostate) was 5.99 µM. It also gave a TGI (DU-145 prostate) of 16.6 µM, a GI50 (EKVX NSCLC) of 1.52 µM and a TGI (EKVX NSCLC) of 6.09 µM. For the same molecule, the GI50 (HCC-2998 colon) was 5.92 µM, the TGI (HCC-2998 colon) was 21.9 µM and the GI50 (HCT-116 colon) was 13.8 µM. For the same molecule, the TGI (HCT-116 colon) was over 50 µM, the GI50 (HCT-15 colon) was 3.05 µM and the TGI (HCT-15 colon) was over 50 µM. The GI50 (HL-60(TB) leukemia) was 4.82 µM, the TGI (HL-60(TB) leukemia) was over 50 µM and the GI50 (HOP-62 NSCLC) was 11.3 µM. It also gave a TGI (HOP-62 NSCLC) of over 50 µM, a GI50 (HOP-92 NSCLC) of 8.69 µM and a TGI (HOP-92 NSCLC) of over 50 µM. For the same molecule, the GI50 (HT29 colon) was 14.1 µM, the TGI (HT29 colon) was over 50 µM and the GI50 (K-562 leukemia) was 3.4 µM. For the same molecule, the TGI (K-562 leukemia) was over 50 µM, the GI50 (KM12 colon) was 4.99 µM and the TGI (KM12 colon) was 14.9 µM. It also gave a GI50 (LOX IMVI melanoma) of 7.47 µM, a TGI (LOX IMVI melanoma) of 17.9 µM and a GI50 (M14 melanoma) of 15.3 µM. For the same molecule, the TGI (M14 melanoma) was over 50 µM, the GI50 (MCF7 breast) was 6.29 µM and the TGI (MCF7 breast) was 40.5 µM. The GI50 (MDA-MB-231 breast) was 12.1 µM, the TGI (MDA-MB-231 breast) was 37.9 µM and the GI50 (MDA-MB-435) was 9.53 µM. For the same molecule, the TGI (MDA-MB-435) was 40.8 µM, the GI50 (MOLT-4 leukemia) was 14.1 µM and the TGI (MOLT-4 leukemia) was over 50 µM. For the same molecule, the GI50 (NCI-H226 lung) was 10.8 µM, the TGI (NCI-H226 lung) was over 50 µM and the GI50 (NCI-H23 lung) was 1.2 µM. For the same molecule, the TGI (NCI-H23 lung) was 6.1 µM, the GI50 (NCI-H460 lung) was 3.95 µM and the TGI (NCI-H460 lung) was 18.3 µM. It also gave a GI50 (NCI-H522 lung) of 1.62 µM, a TGI (NCI-H522 lung) of 11.2 µM and a GI50 (NCI/ADR-RES ovarian) of 6.14 µM. For the same molecule, the TGI (NCI/ADR-RES ovarian) was 36.5 µM, the GI50 (OVCAR-3 ovarian) was 3.88 µM and the TGI (OVCAR-3 ovarian) was 15 µM. It also gave a GI50 (OVCAR-4 ovarian) of 24 µM, a TGI (OVCAR-4 ovarian) of over 50 µM and a GI50 (OVCAR-5 ovarian) of 3.43 µM. The TGI (OVCAR-5 ovarian) was 41.6 µM, the GI50 (OVCAR-8 ovarian) was 2.83 µM and the TGI (OVCAR-8 ovarian) was over 50 µM. The GI50 (PC-3 prostate) was 2.27 µM, the TGI (PC-3 prostate) was 15.1 µM and the GI50 (RPMI-8226 leukemia) was 12.4 µM. It also gave a TGI (RPMI-8226 leukemia) of over 50 µM, a GI50 (RXF 393 renal) of 23.4 µM and a TGI (RXF 393 renal) of over 50 µM. For the same molecule, the GI50 (SF-268 CNS) was over 50 µM, the TGI (SF-268 CNS) was over 50 µM and the GI50 (SF-295 CNS) was 3.93 µM. It also gave a TGI (SF-295 CNS) of 15.8 µM, a GI50 (SF-539 CNS) of 9.19 µM and a TGI (SF-539 CNS) of 25.3 µM. The GI50 (SK-MEL-2 melanoma) was 8.35 µM, the TGI (SK-MEL-2 melanoma) was over 50 µM and the GI50 (SK-MEL-28 melanoma) was 28.2 µM. It also gave a TGI (SK-MEL-28 melanoma) of over 50 µM, a GI50 (SK-MEL-5 melanoma) of 4.33 µM and a TGI (SK-MEL-5 melanoma) of 13.9 µM. The GI50 (SK-OV-3 ovarian) was 8.45 µM, the TGI (SK-OV-3 ovarian) was 49.3 µM and the GI50 (SN12C renal) was 7.39 µM. For the same molecule, the TGI (SN12C renal) was 19.8 µM, the GI50 (SNB-19 CNS) was 15.2 µM and the TGI (SNB-19 CNS) was over 50 µM. The GI50 (SNB-75 CNS) was 15.9 µM, the TGI (SNB-75 CNS) was over 50 µM and the GI50 (SR leukemia) was 0.675 µM. The TGI (SR leukemia) was over 50 µM, the GI50 (SW-620 colon) was 11.7 µM and the TGI (SW-620 colon) was over 50 µM. It also gave a GI50 (T-47D breast) of 6.51 µM, a TGI (T-47D breast) of 26.8 µM and a GI50 (TK-10 renal) of 0.812 µM. It also gave a TGI (TK-10 renal) of 6.61 µM, a GI50 (U251 CNS) of 10.7 µM and a TGI (U251 CNS) of over 50 µM. For the same molecule, the GI50 (UACC-257 melanoma) was 11.3 µM, the TGI (UACC-257 melanoma) was over 50 µM and the GI50 (UACC-62 melanoma) was 7.7 µM. The TGI (UACC-62 melanoma) was 28.9 µM, the GI50 (UO-31 renal) was 1.48 µM and the TGI (UO-31 renal) was over 50 µM.

Molecule CC(=O)Nc1ccc2[nH]c(C(=O)N3CC(CCl)c4c3cc(N)c3ccccc43)cc2c1 (stereo not drawn) has a TGI (A498 renal) of 0.0554 µM, a TGI (BT-549 breast) of 0.335 µM and a TGI (CAKI-1 renal) of under 0.01 µM. For the same molecule, the TGI (EKVX NSCLC) was 0.0851 µM, the TGI (HCC-2998 colon) was under 0.01 µM and the TGI (HCT-116 colon) was under 0.01 µM. For the same molecule, the TGI (HCT-15 colon) was 2.16 µM, the TGI (HOP-62 NSCLC) was under 0.0262 µM and the TGI (HS 578T breast) was under 0.01 µM. The TGI (HT29 colon) was under 0.0309 µM, the TGI (IGROV1 ovarian) was over 100 µM and the TGI (K-562 leukemia) was over 100 µM. The TGI (KM12 colon) was 3.48 µM, the TGI (LOX IMVI melanoma) was under 0.0255 µM and the TGI (MCF7 breast) was 2.01 µM. It also gave a TGI (MDA-MB-435) of 0.0767 µM, a TGI (MOLT-4 leukemia) of under 0.0446 µM and a TGI (NCI-H226 lung) of under 0.0238 µM. For the same molecule, the TGI (NCI-H460 lung) was 11.6 µM, the TGI (NCI-H522 lung) was under 0.01 µM and the TGI (NCI/ADR-RES ovarian) was 0.0534 µM. It also gave a TGI (OVCAR-3 ovarian) of 12.6 µM, a TGI (OVCAR-5 ovarian) of 1.08 µM and a TGI (OVCAR-8 ovarian) of under 0.027 µM. The TGI (SF-268 CNS) was under 0.01 µM, the TGI (SK-MEL-2 melanoma) was under 0.0192 µM and the TGI (SK-MEL-28 melanoma) was 0.0761 µM. It also gave a TGI (SK-MEL-5 melanoma) of 0.0267 µM, a TGI (SK-OV-3 ovarian) of 2.18 µM and a TGI (SN12C renal) of 0.0751 µM. It also gave a TGI (SNB-19 CNS) of 0.259 µM, a TGI (SR leukemia) of 0.0298 µM and a TGI (SW-620 colon) of over 100 µM. For the same molecule, the TGI (UACC-257 melanoma) was under 0.01 µM and the TGI (UACC-62 melanoma) was under 0.0157 µM.
